Assay results from patent US20020132801A1, “Drospirenone for hormone replacement therapy” (Schering Aktiengesellschaft, priority 2001, published 2002).

Tests used:
Type in all cases: physicochemical
[1] = Solubility in water and aqueous buffers; conditions: water and aqueous buffers at various pH values
[2] = Chemical stability under acid and alkaline conditions
[3] = In vitro dissolution from tablet, USP XXIII Paddle Method; conditions: drospirenone in micronized form in a pharmaceutical composition; rapid dissolution defined as at least 70% over about 30 minutes from 3 mg tablet in 900 ml water at 37° C., 50 rpm
Procedure: A micronized substance is such that a test batch (ca. 200 mg) of the particles, herein drospirenone particles, has a surface area of more than 10,000 cm^2/g, and has the following particle size distribution for drospirenone as determined under the microscope: not more than 2 particles in a given batch (ca. 200 mg) with a diameter of more than 30 μm, and preferably ≦20 particles with a diameter of ≧10 μm and ≦30 μm.

In the case of `C[C@]12CCC(=O)C=C1[C@@H]1C[C@@H]1[C@H]1[C@@H]3[C@@H]4C[C@@H]4[C@@]4(CCC(=O)O4)[C@@]3(C)CC[C@@H]12` [drospirenone, 6β,7β;15β;16β-dimethylene-3-oxo-17α-preg-4-ene-21,17-carbolactone], the solubility [1] is reported as “sparingly soluble”, the “stability under acid conditions” value ([2]; acid conditions) is reported as “rearranged to an inactive isomer” and the “stability under alkaline conditions” value ([2]; alkaline conditions) is reported as “hydrolysed”. The “in vitro dissolution of active compound from composition” value [3] was “rapid dissolution”.
